Experimental data from patent CN108947977A, “3r-吲哚甲基-6r-酰胺侧链氨基酸修饰的哌嗪-2,5-二酮，其合成，活性和应用” (Capital Medical University, priority 2017, dated 2018).

Tests used:
Lewis小鼠肺癌细胞(LLC) = experiment: Anti-metastasis activity: Lewis lung carcinoma (LLC) implanted in C57BL/6 mice, lung metastasis nodules counted; assay type: in vivo, C57BL/6小鼠; settings: oral, 0.5μmol/kg/天; for Inhibition of tumour lung metastasis (result in words): 12 days, LLC-bearing C57BL/6 mice; for Anti-metastasis activity compared with RGDS (20μmol/kg/天) and compound 8 (5μmol/kg/天): RGDS dose 40-fold higher, compound 8 dose 10-fold higher
S180 = experiment: Anti-tumour growth activity in S180 tumour-bearing mice (tumour weight); assay type: in vivo, ICR小鼠; settings: oral, 0.5μmol/kg/天; for Inhibition of tumour growth (result in words): 12 days, S180 mice; for Anti-tumour growth activity compared with compound 8 (5μmol/kg/天): compound 8 dose 10-fold higher
二甲苯引起的小鼠耳肿胀 = experiment: Anti-inflammatory activity: xylene-induced mouse ear swelling; assay type: in vivo, ICR小鼠; settings: oral, 0.5μmol/kg; for Inhibition of xylene-induced mouse ear swelling (result in words): xylene 30 min after dosing, ears taken 2 h later; for Anti-inflammatory activity compared with compound 8 (5μmol/kg): compound 8 dose 10-fold higher

SMILES | Inhibition of tumour lung metastasis (result in words) (Lewis小鼠肺癌细胞(LLC)) | Anti-metastasis activity compared with RGDS (20μmol/kg/天) and compound 8 (5μmol/kg/天) (Lewis小鼠肺癌细胞(LLC)) | Inhibition of tumour growth (result in words) (S180) | Anti-tumour growth activity compared with compound 8 (5μmol/kg/天) (S180) | Inhibition of xylene-induced mouse ear swelling (result in words) (二甲苯引起的小鼠耳肿胀) | Anti-inflammatory activity compared with compound 8 (5μmol/kg) (二甲苯引起的小鼠耳肿胀)
NC(=O)CC[C@H](N)C(=O)NCCCCCC(=O)NCCCC[C@H]1NC(=O)[C@@H](Cc2c[nH]c3ccccc23)NC1=O [化合物6a, (3R,6R)-3-(Gln-氨基正己酰基氨基正丁基)-6-(吲哚-3-甲基)-哌嗪-2,5-二酮] | 有效地抑制肿瘤肺转移 | 没有显著性差异 | 有效地抑制肿瘤生长 | 没有显著性差异 | 有效地抑制二甲苯引起的小鼠耳肿胀 | 没有显著性差异
NC(=O)C[C@H](N)C(=O)NCCCCCC(=O)NCCCC[C@H]1NC(=O)[C@@H](Cc2c[nH]c3ccccc23)NC1=O [化合物6b, (3R,6R)-3-(Asn-氨基正己酰基氨基正丁基)-6-(吲哚-3-甲基)-哌嗪-2,5-二酮] | 有效地抑制肿瘤肺转移 | 没有显著性差异 | 有效地抑制肿瘤生长 | 没有显著性差异 | 有效地抑制二甲苯引起的小鼠耳肿胀 | 没有显著性差异
